Data set [1] has as its system patients with advanced solid tumors. The data set is described as follows: Phase I trial: antitumor activity (RECIST 1.1). Format: in vivo, human. The protocol: Descriptive statistics of safety are presented per CTCAE v4.0. Subjects who received at least one dose of CT053PTSA were considered eligible to be evaluated and included in safety analyses. […] According to the RECIST 1.1 criteria, imaging examinations were performed at each specified time point in the protocol. The antitumor activity was measured by RECIST1.1.

Data set [2] addresses C-KIT (Homo sapiens, UniProt P10721). The data set is described as follows: Kinase inhibition assay (LANCE or HTRF). The format is biochemical. The conditions noted are these: ATP at Km.
Method: (§2) The IC50 values were determined by measuring phosphorylation of peptide substrate poly at ATP concentrations at the Km.
For data set [3], the target named is AXL (Homo sapiens, UniProt P30530). The data set is described as follows: cell-based. On the procedure: Phosphorylation of the receptors MET, AXL, VEGFR2, and FLT3 was assessed in the transgenic human MKN45 gastric tumor cell line overexpressing MET, mouse embryonic fibroblasts (MEFs) expressing full-length human AXL (AXL-MEFs), human umbilical vein endothelial cells (HUVECs) […], and MEFs expressing full-length human FLT3 (FLT3-wt-MEFs), respectively. […] Then, HUVECs and FLT3-wt-MEFs were stimulated with the ligands VEGF-A (100 ng/ml, for 3 min) and FLT3-ligand (50 ng/ml, for 5 min). MKN45 (overexpressing MET) and AXL-MEFs cells had no stimulation. Cells treated with staurosporine (AXL, FLT3-wt, c-Kit, FLT3, TIE2, VEGF-R2; [1,0E-05 M]) or BMS777607 (MET; [1,0E-06 M]) or sunitinib (VEGF-R3; [1,0E-06 M]) or crizotinib (RON; [1,0E-05 M] were defined as low control (n = 8). The median value of those wells represented the background and was set to 0%. Cells treated with solvent alone were defined as high control (n = 8). The median value of those wells was set to 100%. Test sample-treated cells as well as high and low control were stimulated in identical manner. Quantification of receptor tyrosine kinase autophosphorylation was assessed in 96-well plates via sandwich ELISA using a receptor specific capture antibody and an anti-phosphotyrosine detection antibody. […]

A short description of data set [4]: Body weight of tumor-bearing mice in efficacy studies. The format is in vivo. The conditions noted are these: all groups, 1-20 mg/kg. The protocol: (§1) Human tumor xenografts were established in female BALB/cA nude mice (5-6 weeks old) by administering the SNU-5 and MKN-45 cells, which have high MET expression levels. For efficacy studies in patient-derived tumor xenograft (PDX) mouse models, MET-overexpressing GA0046 and GA3121 tumors (obtained from Crownbio, CA, USA) were established by directly implanting surgical tissues into immunodeficient mice. […] The subcutaneous tumor size and body weight were measured twice weekly. The tumor volumes were determined by measuring two perpendicular diameters with calipers and calculated as (length × width^2)/2.

The target in data set [5] is EphA6 (Homo sapiens, UniProt Q9UF33). The data set is described as follows: Kinase inhibition assay (LANCE or HTRF). The format is biochemical. To be noted: ATP at Km.
Method: as §2
Data set [6] addresses PDGFRα (Homo sapiens, UniProt P16234). The data set is described as follows: Kinase inhibition assay (LANCE or HTRF). Format: biochemical. The conditions noted are these: ATP at Km.
Method: as §2
In data set [7] the target is FRK (Homo sapiens, UniProt P42685). The data set is described as follows: Kinase inhibition assay (LANCE or HTRF). Format: biochemical. The conditions noted are these: ATP at Km.
Method: as §2
In data set [8] the target is EphA8 (Homo sapiens, UniProt P29322). The data set is described as follows: Kinase inhibition assay (LANCE or HTRF). Format: biochemical. To be noted: ATP at Km.
Method: as §2
For data set [9], the system named is GA0046 PDX xenografts. The data set is described as follows: In vivo efficacy study, PDX model. Details: species or system immunodeficient mice. The protocol:
as §1

For data set [10], the system named is GA3121 PDX xenografts. The data set is described as follows: In vivo efficacy study, PDX model. On the set-up: species or system immunodeficient mice. To be noted: 20 mg/kg once per day oral gavage. On the procedure: as §1
Data set [11] deals with SNU638. The data set is described as follows: Cell proliferation assay (CellTiter-Glo, 72 hours). The format is cell-based. The conditions noted are these: Homo sapiens, SNU-638, read-out: IC50 anti-proliferative.
Method: Human gastric tumor cell lines with high MET expression levels, namely, the GTL-16, MKN45, SNU638, Hs746T, SNU-620, and SNU-5 cell lines, were used in the assay. […] Cell viability was measured after 72 hours using a CellTiter-Glo Luminescent Cell Viability Assay Kit (Promega, WI, USA) according to the manufacturer’s instructions.
The target of data set [12] is RON (Homo sapiens, UniProt Q04912). The data set is described as follows: Kinase inhibition assay (LANCE or HTRF). Format: biochemical. The conditions noted are these: ATP at Km.
Method: as §2
Data set [13] deals with FLT4 (Homo sapiens, UniProt P35916). The data set is described as follows: Kinase inhibition assay (LANCE or HTRF). The format is biochemical. To be noted: ATP at Km.
Method: as §2
Data set [14] deals with Fes (Homo sapiens, UniProt P07332). The data set is described as follows: Kinase inhibition assay (LANCE or HTRF). Format: biochemical. The conditions noted are these: ATP at Km.
Method: as §2
Data set [15] has as its target EphA4 (Homo sapiens, UniProt P54764). The data set is described as follows: Kinase inhibition assay (LANCE or HTRF). To be noted: ATP at Km. The format is biochemical.
Method: as §2
Data set [16] deals with SNU-216. The data set is described as follows: Cell proliferation assay (CellTiter-Glo, 72 hours). Format: cell-based. The conditions noted are these: Homo sapiens, read-out: IC50 anti-proliferative.
Method: (§3) Human gastric tumor cell lines with high MET expression levels, namely, the GTL-16, MKN45, SNU638, Hs746T, SNU-620, and SNU-5 cell lines, were used in the assay. These cell lines were obtained from American Type Culture Collection (ATCC), Japanese Collection of Research Bioresources (JCRB), Shanghai Institutes of Biological Sciences, CAS (SIBS), Korean Cell Line Bank (KCLB) or National Institutes of Health (NIH). […] Cell viability was measured after 72 hours using a CellTiter-Glo Luminescent Cell Viability Assay Kit (Promega, WI, USA) according to the manufacturer’s instructions.
Data set [17] concerns the target LnyA (Homo sapiens, UniProt P07948). The data set is described as follows: Kinase inhibition assay (LANCE or HTRF). The format is biochemical. To be noted: ATP at Km.
Method: as §2
Data set [18] concerns HS746T. The data set is described as follows: Cell proliferation assay (CellTiter-Glo, 72 hours). Format: cell-based. To be noted: Homo sapiens, read-out: IC50 anti-proliferative.
Method: as §3
In data set [19] the target is Fgr (Homo sapiens, UniProt P09769). The data set is described as follows: Kinase inhibition assay (LANCE or HTRF). The format is biochemical. To be noted: ATP at Km.
Method: as §2
For data set [20], the system named is phosphorylation of MET. The data set is described as follows: Western blot of tumor lysates from GA3121 PDX model. The format is in vivo, immunodeficient mice. To be noted: 20 mg/kg, 21 days. From the text:
The SNU-5 cell line was selected for western blotting analysis of signaling molecules. […] Immunoreactive proteins (p-AXL, t-ERK and p-ERK) were visualized using the ECL system (Pierce Chemical, TX, USA). Other proteins were detected by Odyssey (LI-COR, NE, USA) at a wavelength of 700 nm or 800 nm. […] Tumor lysates were subjected to western blotting. The following antibodies were purchased from Cell Signaling Technology (Cell Signaling Technology Cat#3148, RRID : AB_1031042): anti-MET (Cell Signaling Technology Cat# 3148, RRID : AB_1031042), anti-p-MET Y1234/1235 (Antibodies-Online Cat# ABIN461461, RRID : AB_10786128), anti-AXL (Cell Signaling Technology Cat# 4566, RRID : AB_2062563), anti-p-AXL Y702 (5724S), anti-ERK (9107S), anti-p-ERK Thr202/Tyr204 (4370S), anti-p-AKT Ser473 (4060S), and anti-AKT (Cell Signaling Technology Cat# 2920, RRID : AB_1147620).
Human tumor xenografts were established in female BALB/cA nude mice (5-6 weeks old) by administering the SNU-5 and MKN-45 cells, which have high MET expression levels. […] The subcutaneous tumor size and body weight were measured twice weekly. The tumor volumes were determined by measuring two perpendicular diameters with calipers and calculated as (length × width^2)/2.

Data set [21] deals with MERTK (Homo sapiens, UniProt Q12866). The data set is described as follows: Kinase inhibition assay (LANCE or HTRF). Format: biochemical. The conditions noted are these: ATP at Km.
Method: as §2

“And” between values parts separate entries of the source, which are not always exact repeats. Equal entries are not always repeated. “Also recorded” adds a separate entry of the source.

MERTK, sequence (Q12866 21-999): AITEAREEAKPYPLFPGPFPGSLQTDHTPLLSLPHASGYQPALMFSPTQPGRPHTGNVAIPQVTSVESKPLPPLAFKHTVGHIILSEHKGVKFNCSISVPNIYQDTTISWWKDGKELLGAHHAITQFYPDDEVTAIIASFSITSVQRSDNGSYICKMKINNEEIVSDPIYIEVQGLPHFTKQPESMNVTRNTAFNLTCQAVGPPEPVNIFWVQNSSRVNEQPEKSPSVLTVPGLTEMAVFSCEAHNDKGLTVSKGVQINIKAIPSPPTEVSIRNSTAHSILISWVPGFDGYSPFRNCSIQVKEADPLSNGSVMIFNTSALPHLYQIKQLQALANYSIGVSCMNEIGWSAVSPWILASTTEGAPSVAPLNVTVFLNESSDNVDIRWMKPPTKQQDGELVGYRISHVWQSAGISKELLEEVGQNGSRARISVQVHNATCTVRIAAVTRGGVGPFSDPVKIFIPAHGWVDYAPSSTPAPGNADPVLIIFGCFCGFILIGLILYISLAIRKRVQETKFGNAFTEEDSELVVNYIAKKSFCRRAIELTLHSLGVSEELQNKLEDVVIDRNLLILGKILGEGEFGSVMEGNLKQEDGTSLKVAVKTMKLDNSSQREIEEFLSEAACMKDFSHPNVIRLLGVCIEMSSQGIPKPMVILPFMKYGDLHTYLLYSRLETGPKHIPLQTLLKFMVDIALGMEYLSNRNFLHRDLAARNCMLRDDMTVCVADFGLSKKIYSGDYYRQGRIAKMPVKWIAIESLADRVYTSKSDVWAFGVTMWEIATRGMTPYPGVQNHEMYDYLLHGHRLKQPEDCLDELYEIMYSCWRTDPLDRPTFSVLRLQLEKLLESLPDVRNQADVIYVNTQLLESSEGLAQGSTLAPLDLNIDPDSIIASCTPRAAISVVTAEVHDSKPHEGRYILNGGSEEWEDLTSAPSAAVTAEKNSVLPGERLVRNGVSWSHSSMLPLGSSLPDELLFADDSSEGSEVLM
AXL, sequence (P30530 26-894): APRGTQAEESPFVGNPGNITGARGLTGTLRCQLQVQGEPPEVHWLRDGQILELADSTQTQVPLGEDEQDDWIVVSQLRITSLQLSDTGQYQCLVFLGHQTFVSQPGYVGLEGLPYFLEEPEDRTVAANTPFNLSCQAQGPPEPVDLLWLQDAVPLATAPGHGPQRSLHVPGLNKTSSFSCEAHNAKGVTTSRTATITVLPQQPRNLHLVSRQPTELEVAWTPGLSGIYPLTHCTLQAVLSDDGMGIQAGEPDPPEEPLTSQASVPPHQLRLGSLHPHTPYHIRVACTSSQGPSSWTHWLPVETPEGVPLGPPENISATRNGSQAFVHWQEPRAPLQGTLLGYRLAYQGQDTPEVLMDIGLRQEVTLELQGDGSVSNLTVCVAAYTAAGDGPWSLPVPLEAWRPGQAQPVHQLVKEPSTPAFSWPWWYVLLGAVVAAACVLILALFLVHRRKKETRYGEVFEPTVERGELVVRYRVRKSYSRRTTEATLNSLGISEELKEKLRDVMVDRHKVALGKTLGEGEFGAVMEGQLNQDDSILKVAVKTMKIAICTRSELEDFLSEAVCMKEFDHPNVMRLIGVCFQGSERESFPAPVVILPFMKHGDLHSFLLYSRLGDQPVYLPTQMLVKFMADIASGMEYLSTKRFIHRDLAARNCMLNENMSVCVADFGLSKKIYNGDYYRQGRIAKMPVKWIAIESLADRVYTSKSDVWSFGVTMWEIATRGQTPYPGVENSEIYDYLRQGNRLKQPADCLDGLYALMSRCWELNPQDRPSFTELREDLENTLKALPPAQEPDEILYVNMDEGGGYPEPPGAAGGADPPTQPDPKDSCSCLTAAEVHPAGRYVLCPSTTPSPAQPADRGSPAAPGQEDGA
EphA8, sequence (P29322 28-1005): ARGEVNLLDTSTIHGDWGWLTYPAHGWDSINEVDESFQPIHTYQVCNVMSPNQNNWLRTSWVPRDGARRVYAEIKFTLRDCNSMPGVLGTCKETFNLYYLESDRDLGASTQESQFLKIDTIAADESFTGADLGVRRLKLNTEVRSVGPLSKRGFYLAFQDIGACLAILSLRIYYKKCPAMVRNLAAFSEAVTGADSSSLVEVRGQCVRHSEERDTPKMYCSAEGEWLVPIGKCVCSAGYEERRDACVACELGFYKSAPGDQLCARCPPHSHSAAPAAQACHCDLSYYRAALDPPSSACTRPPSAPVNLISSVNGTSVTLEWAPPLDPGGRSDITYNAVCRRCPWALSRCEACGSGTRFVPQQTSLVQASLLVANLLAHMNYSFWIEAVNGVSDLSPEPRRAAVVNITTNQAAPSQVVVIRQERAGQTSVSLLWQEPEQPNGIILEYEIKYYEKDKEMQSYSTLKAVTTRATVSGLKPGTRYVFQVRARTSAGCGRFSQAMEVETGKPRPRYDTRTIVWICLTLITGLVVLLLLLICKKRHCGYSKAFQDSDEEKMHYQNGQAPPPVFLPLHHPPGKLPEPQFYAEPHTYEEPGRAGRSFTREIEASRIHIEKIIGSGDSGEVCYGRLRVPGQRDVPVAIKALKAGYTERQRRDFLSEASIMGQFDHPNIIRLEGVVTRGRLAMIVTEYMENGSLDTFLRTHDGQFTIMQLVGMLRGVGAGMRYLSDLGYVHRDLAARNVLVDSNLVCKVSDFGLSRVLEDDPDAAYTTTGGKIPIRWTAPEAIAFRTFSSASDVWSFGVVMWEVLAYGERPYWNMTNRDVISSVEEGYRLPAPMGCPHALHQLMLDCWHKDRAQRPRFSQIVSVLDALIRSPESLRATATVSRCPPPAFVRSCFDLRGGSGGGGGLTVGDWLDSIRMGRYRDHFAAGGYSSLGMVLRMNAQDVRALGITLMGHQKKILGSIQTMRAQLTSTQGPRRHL
LnyA, sequence (P07948 whole entry): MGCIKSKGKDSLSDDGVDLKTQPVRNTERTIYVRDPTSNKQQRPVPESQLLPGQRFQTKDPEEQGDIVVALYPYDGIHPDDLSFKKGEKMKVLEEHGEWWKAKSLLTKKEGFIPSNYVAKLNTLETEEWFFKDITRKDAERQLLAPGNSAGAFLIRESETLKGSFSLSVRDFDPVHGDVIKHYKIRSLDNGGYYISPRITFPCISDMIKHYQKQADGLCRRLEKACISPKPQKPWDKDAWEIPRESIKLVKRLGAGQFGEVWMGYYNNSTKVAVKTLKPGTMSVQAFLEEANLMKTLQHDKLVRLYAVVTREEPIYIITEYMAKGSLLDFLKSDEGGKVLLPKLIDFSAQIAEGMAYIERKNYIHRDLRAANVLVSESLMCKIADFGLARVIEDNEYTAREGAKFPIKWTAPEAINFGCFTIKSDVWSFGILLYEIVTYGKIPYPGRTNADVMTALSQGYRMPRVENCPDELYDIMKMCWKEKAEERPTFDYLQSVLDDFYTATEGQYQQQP
FLT4, sequence (P35916 25-1363): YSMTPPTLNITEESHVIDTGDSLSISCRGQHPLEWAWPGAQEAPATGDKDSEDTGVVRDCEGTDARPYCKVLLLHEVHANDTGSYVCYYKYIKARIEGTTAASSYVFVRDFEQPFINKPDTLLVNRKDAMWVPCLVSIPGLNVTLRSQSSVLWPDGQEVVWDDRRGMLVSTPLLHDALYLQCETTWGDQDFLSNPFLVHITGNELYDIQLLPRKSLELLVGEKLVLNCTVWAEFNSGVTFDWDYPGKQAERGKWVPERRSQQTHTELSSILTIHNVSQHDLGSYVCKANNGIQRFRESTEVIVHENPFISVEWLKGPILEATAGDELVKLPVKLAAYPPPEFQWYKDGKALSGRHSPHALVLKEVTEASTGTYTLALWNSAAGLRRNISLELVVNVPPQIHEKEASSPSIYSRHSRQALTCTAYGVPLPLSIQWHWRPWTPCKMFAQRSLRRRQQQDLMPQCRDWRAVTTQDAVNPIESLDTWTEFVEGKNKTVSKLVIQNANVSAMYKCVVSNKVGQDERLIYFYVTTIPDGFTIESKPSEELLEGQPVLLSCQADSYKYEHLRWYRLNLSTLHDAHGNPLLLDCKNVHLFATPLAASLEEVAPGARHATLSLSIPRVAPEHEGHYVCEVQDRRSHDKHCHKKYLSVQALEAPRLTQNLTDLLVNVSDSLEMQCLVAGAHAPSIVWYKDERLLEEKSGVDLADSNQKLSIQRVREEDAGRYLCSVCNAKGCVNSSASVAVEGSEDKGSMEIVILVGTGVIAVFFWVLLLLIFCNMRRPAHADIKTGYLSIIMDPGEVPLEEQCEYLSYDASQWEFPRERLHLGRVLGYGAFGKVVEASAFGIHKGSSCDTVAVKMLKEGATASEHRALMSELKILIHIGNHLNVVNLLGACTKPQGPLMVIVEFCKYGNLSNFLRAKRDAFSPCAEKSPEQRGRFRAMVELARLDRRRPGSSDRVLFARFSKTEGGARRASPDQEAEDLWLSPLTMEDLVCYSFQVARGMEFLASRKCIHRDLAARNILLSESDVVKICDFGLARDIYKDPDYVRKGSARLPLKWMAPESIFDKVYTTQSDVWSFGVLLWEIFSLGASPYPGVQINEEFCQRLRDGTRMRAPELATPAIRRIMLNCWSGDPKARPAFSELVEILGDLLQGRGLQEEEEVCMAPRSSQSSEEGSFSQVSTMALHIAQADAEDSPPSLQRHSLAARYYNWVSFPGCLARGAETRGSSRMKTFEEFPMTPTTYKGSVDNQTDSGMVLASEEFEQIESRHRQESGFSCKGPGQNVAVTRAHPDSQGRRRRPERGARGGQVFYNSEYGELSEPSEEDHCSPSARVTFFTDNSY

Take `Cc1c(C(=O)Nc2ccc(Oc3ccnc4cc(OCC(C)(C)O)ccc34)c(F)c2)c(=O)n(-c2ccccc2)n1C` [CT053PTSA]: in data set [1] (60 mg QD), the “duration of SD in single patients” value is 16 weeks and 24 weeks. For the same compound, in [1] (100 mg dose group), the “duration of SD in single patient” value amounted to 8 weeks. Moreover, in data set [1] (17 evaluated patients), the “CR or PR” value is “none of them achieved CR or PR; also recorded: No CR or PR was observed” and the DCR amounted to 29.4%.

As to `Cc1c(C(=O)Nc2ccc(Oc3ccnc4cc(OCC(C)(C)O)ccc34)c(F)c2)c(=O)n(-c2ccccc2)n1C` [CT053], the IC50 in data set [2] was found to be 960 nM; in data set [3], 0.44 nM; in [5], 81 nM; in [6] it was 390 nM; in [7], 520 nM; in data set [8], 620 nM. The IC50 in [11] is 90 nM; in data set [12] it was 160 nM; in data set [13], 46 nM; in data set [14], 48 nM; in data set [15], 370 nM; in data set [16], > 10000 nM. Also, the IC50 worked out at 240 nM in [17], 140 nM in data set [18], 77 nM in [19] and 14 nM in data set [21]. Moreover, the “change in body weight” value in data set [4] is listed as “no significant change in body weight”. Moreover, the TGI in [9] (3 mg/kg once per day oral gavage) was 18%; in data set [9] (10 mg/kg once per day oral gavage) it was 57%; in data set [9] (20 mg/kg once per day oral gavage), 75%; in data set [10], 172%. In [20], the “phosphorylation of MET in tumors vs vehicle” value is recorded as “significantly inhibited”.

The record behind these values is paper PMC9632963, “Preclinical characterization and phase I clinical trial of CT053PTSA targets MET, AXL, and VEGFR2 in patients with advanced solid tumors” (Frontiers in Immunology, 2022).
